# According to patent US6939680B2 (H. Lundbeck A/S, priority 1990, dated 2005):
# Where two headings read alike, the source gives them in different places.
# What was measured:
# [1] = target: T1, human dopamine D1 receptor clone GL-30 (dopamine D1β receptor) (Homo sapiens, UniProt P21918); assay: [3H]SCH-23390 radioligand binding (saturation and competition) to membranes of Cos-7 cells transfected with clone GL-30
# T1 construct: expressed in transfected cells; host or cells: Cos-7 cells, transient transfection with pcEXV-3 carrying GL-30
# T1 sequence (P21918 whole entry): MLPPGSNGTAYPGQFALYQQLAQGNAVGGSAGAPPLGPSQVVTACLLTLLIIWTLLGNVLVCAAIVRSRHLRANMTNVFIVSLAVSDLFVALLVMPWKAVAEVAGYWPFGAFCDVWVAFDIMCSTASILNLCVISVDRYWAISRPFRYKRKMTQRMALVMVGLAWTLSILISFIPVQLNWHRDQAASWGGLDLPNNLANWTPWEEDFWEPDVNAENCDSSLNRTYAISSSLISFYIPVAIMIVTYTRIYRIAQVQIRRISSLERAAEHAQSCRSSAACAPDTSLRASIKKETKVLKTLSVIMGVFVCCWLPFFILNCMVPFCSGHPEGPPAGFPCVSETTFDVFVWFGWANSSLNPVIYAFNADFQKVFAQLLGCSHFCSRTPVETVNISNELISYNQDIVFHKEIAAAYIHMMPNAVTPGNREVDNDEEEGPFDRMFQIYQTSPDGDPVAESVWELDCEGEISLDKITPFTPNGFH
# DA1 receptor = conditions: clinical trials; cited from earlier work
# [2] = competition binding, GL-30 in Cos-7 membranes
"potency/affinity in displacing [3H]SCH-23390 binding (in words) [1, 2]",Compound,potency/affinity in displacing [3H]SCH-23390 binding (in words) [1],further results
,CCCN1CCC[C@@H]2Cc3n[nH]cc3C[C@H]21 [quinpirole],low affinity,
low affinity,CCN1CCC[C@H]1CNC(=O)c1cc(S(N)(=O)=O)ccc1OC [(−) sulpiride],,
,cis-flupenthixol,most potent,
,Oc1ccc(C2CNCCc3c2cc(O)c(O)c3Cl)cc1 (stereo not drawn) [fenoldopam],,renal vasodilatory action (DA1 receptor): potent renal vasodilatory action
inactive,NC[C@H](O)c1ccc(O)c(O)c1 [norepinephrine],,
,COc1ccc2c(c1O)-c1c3c(cc4c1[C@H](C2)N(C)CC4)OCO3 [bulbocapnine],,Ki values compared with those reported for the D1 receptor ([1]; versus native rat and human brain tissues and Cos-7 cells transfected with the previously cloned D1 gene): comparable
